From US20250248998A1, “LRRK2 Inhibitors” (Brenig Therapeutics, Inc., priority 2022, published 2025)

Legend:
[1] = biological target: T1, LRRK2[G2019S] (Homo sapiens, UniProt Q5S007, G2019S); assay: Enzymatic activity inhibition against LRRK2[G2019S] (ADP-Glo kinase assay, LRRKtide substrate); type: biochemical; set-up: purchased SignalChem Biotech, Inc. L10-12GG-10; settings: recombinant LRRK2[G2019S] 36 nM, ATP, 1 h at rt, average Ki
Method: Example A. Primary Assays Used to Determine Potency of the LRRK2 Inhibition
Assay for Determining Enzymatic Activity Inhibition Against LRRK2[G2019S].
Compound activity was determined using recombinant LRRK2[G2019S] protein (SignalChem Biotech, Inc., Cat #L10-12GG-10) and LRRKtide substrate (SignalChem Biotech, Inc., Cat #L10-58) in an in vitro enzymatic reaction. The enzymatic reaction was carried out in assay buffer (40 mM TRIS-HCl pH 7.4, 20 mM MgCl2, 0.05 mM DTT, 0.1 mg/mL BSA). The compounds were dispensed into a 384 well Diamond Well Plate (Axigen, Cat #P-384-120SQ-C-S) using the Biomek FX liquid handling system at the 80× solutions of compounds in DMSO. The 2× Protein-Substrate mix (final concentration 36 nM of LRRK2[G2019S] and 0.8 μg/μL of LRRKtide) was prepared in 1× Assay buffer and 4 μL of mixture per well was added into the 384-well white Reaction plate with NBS (Corning, Cat #CLS4513). The 4 μL of LRRKtide substrate w/o LRRK2[G2019S] in the 1× buffer was used for a negative control. Plates were centrifuged for 1 min at 200 g. Next the compounds were added to the reaction plate using Biomek station via following steps: 1 μL of 80× compounds (in DMSO) were mixed thoroughly with 39 μL of 2×10 μM ATP in Assay Buffer, then 4 μL of this mixture was added to Reaction plate with 4 μL of Protein-Substrate mix. Plates were centrifuged for 1 min at 200 g and incubated for 1 h at rt. Then, 4 μL per well of ADP-Glo reagent (Promega, ADP-Glo™ Kinase Assay, Cat #V9102) was added. Plates were incubated for 30 min at rt. Then, 8 μL per well of Kinase detection reagent (Promega, ADP-Glo™ Kinase Assay, Cat #V9102) was added and the luminescence signal was measured with a microplate reader. The luminescence signal was detected with CLARIOstar Plus (BMG LABTECH) microplate reader. The % inhibition was then used to calculate the Ki values. The average Ki values are shown in Table A, wherein “A” corresponds to Ki<5.0 nM, “B” corresponds to 5.0 nM≤Ki<10.0 nM, “C” 10.0 nM≤Ki<50.0 nM, “D” corresponds to 50.0 nM≤Ki<100.0 nM and “E” corresponds to Ki>100.0 nM.
Target sequence in this assay (Q5S007 970-2527 G2019S limits assumed): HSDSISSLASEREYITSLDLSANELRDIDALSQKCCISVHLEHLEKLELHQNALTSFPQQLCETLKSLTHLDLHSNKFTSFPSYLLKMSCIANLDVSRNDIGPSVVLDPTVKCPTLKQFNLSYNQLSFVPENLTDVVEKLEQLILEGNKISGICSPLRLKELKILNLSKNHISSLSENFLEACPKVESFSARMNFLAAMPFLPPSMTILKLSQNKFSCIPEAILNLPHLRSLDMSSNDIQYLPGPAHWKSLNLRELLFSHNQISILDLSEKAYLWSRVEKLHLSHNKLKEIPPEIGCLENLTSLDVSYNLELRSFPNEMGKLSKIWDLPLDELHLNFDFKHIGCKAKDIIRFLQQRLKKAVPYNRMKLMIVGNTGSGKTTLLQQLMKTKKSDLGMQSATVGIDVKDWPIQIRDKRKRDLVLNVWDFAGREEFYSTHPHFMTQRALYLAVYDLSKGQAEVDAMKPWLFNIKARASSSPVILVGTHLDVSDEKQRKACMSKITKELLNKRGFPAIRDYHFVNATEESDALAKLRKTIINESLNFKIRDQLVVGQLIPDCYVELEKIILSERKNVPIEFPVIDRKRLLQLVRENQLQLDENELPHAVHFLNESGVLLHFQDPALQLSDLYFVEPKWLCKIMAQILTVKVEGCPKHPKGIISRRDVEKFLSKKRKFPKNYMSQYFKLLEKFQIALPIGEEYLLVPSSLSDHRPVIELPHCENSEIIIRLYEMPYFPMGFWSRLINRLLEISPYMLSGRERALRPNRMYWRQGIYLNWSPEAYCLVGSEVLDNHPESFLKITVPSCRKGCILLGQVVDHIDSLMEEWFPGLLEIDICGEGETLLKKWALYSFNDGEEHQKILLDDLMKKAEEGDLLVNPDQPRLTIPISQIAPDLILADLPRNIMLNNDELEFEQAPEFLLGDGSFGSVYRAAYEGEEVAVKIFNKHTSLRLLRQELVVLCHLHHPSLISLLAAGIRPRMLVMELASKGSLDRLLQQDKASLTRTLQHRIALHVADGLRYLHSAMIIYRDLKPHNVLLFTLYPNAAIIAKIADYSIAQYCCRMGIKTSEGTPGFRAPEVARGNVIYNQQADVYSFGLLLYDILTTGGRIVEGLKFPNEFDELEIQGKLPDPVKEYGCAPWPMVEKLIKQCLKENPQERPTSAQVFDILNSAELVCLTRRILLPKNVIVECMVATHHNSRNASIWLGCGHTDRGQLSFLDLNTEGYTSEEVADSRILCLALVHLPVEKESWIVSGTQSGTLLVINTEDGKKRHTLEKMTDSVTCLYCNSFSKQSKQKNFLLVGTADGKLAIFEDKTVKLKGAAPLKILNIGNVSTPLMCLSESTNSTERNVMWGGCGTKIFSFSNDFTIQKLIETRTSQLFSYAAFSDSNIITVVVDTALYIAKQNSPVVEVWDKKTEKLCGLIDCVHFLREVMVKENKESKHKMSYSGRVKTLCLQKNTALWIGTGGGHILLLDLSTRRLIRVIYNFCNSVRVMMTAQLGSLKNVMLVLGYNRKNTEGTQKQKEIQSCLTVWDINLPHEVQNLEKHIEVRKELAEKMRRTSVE

[2] = biological target: T2, LRRK2 WT (Homo sapiens, UniProt Q5S007); assay: Enzymatic activity inhibition against LRRK2 WT (ADP-Glo kinase assay, LRRKtide substrate); type: biochemical; set-up: purchased SignalChem Biotech, Inc. L10-11G-10; settings: recombinant LRRK2 WT 36 nM, ATP, 1 h at rt, average Ki
Method: Example B. Primary Assays Used to Determine Potency of the LRRK2 Inhibition
Assay for Determining Enzymatic Activity Inhibition Against LRRK2 WT.
Compound activity was determined using recombinant LRRK2 WT protein (SignalChem Biotech, Inc., Cat #L10-11G-10) and LRRKtide substrate (SignalChem Biotech, Inc., Cat #L10-58) in an in vitro enzymatic reaction. The enzymatic reaction was carried out in assay buffer (40 mM TRIS-HCl pH 7.4, 20 mM MgCl2, 0.05 mM DTT, 0.1 mg/mL BSA). The compounds were dispensed into a 384 well Diamond Well Plate (Axigen, Cat #P-384-120SQ-C-S) using the Biomek FX liquid handling system at 80× solutions of compounds in DMSO. The 2× Protein-Substrate mix (final concentration 36 nM of LRRK2 WT and 0.8 μg/μL of LRRKtide) was prepared in the 1× Assay buffer and 4 μL of mixture per well was added into the 384-well white Reaction plate with NBS (Corning, Cat #CLS4513). The 4 μL of LRRKtide substrate w/o LRRK2 WT in the 1× buffer was used for a negative control. Plates were centrifuged for 1 min at 200 g. Next the compounds were added to Reaction plate using Biomek station via following steps: 1 μL of 80× compounds (in DMSO) were mixed thoroughly with 39 μL of 2×10 μM ATP in Assay Buffer, then 4 μL of this mixture was added to Reaction plate with 4 μL of Protein-Substrate mix. Plates were centrifuged for 1 min at 200 g and incubated for 1 hour at rt. Then, 4 μL per well of ADP-Glo reagent (Promega, ADP-Glo™ Kinase Assay, Cat #V9102) was added. Plates were incubated for 30 minutes at rt. Then, 8 μL per well of Kinase detection reagent (Promega, ADP-Glo™ Kinase Assay, Cat #V9102) was added and the luminescence signal was measured with a microplate reader. The % inhibition was then used to calculate the Ki values. The average Ki values are shown in Table B, wherein “A” corresponds to Ki<10.0 nM, “B” corresponds to 10.0 nM K Ki<20.0 nM, “C” 20.0 nM K Ki<50.0 nM, “D” corresponds to 50.0 nM K Ki<100.0 nM and “E” corresponds to Ki>100.0 nM.
Target sequence in this assay (Q5S007 970-2527 limits assumed): as the sequence (Q5S007 970-2527 G2019S limits assumed) above, with S1050G counted along it

[3] = biological target: T2, LRRK2 WT; assay: Cell-based NanoBRET target engagement assay in HEK293 cells transfected with LRRK2 WT-NanoLuc fusion vector; set-up: expressed in transfected cells; host or cells: HEK293 (ATCC); settings: compound treatment 1 h
Method: (§1) Example C. Cell-Based NanoBRET Target Engagement Assay in 11EK293 Cells Transiently Transfected with LRRK2 WT- or LRRK2 (G2019S)-Nano Luc Fusion Vector
(§2) H1EK293 (ATCC) cells were transfected with […] LRRK2 WT or LRRK2 (G2019S) and 9 μg transfection carrier DNA. The transfected cells were treated with the compounds (starting at 1 μM, 10-dose with 3-fold dilution) and reference compounds CEP-701 or Staurosporine (starting at 1 μM, 10-dose with 3-fold dilution); compound treatment time: 1 h. LRRK2 WT and LRRK2 (G2019S) target engagement was measured by NanoBRET assay. Curve fits were performed only when % NanoBret signal at the highest concentration of compounds was less than […]. Assay format: 384-well format, 4000 cells/well. The IC50 values are shown in Table C, wherein “A” corresponds to IC50≤50.0 nM, “B” corresponds to 50.0 nM≤IC50<100.0 nM, “C” corresponds to 100.0 nM≤IC50.
Target sequence in this assay (Q5S007 whole entry): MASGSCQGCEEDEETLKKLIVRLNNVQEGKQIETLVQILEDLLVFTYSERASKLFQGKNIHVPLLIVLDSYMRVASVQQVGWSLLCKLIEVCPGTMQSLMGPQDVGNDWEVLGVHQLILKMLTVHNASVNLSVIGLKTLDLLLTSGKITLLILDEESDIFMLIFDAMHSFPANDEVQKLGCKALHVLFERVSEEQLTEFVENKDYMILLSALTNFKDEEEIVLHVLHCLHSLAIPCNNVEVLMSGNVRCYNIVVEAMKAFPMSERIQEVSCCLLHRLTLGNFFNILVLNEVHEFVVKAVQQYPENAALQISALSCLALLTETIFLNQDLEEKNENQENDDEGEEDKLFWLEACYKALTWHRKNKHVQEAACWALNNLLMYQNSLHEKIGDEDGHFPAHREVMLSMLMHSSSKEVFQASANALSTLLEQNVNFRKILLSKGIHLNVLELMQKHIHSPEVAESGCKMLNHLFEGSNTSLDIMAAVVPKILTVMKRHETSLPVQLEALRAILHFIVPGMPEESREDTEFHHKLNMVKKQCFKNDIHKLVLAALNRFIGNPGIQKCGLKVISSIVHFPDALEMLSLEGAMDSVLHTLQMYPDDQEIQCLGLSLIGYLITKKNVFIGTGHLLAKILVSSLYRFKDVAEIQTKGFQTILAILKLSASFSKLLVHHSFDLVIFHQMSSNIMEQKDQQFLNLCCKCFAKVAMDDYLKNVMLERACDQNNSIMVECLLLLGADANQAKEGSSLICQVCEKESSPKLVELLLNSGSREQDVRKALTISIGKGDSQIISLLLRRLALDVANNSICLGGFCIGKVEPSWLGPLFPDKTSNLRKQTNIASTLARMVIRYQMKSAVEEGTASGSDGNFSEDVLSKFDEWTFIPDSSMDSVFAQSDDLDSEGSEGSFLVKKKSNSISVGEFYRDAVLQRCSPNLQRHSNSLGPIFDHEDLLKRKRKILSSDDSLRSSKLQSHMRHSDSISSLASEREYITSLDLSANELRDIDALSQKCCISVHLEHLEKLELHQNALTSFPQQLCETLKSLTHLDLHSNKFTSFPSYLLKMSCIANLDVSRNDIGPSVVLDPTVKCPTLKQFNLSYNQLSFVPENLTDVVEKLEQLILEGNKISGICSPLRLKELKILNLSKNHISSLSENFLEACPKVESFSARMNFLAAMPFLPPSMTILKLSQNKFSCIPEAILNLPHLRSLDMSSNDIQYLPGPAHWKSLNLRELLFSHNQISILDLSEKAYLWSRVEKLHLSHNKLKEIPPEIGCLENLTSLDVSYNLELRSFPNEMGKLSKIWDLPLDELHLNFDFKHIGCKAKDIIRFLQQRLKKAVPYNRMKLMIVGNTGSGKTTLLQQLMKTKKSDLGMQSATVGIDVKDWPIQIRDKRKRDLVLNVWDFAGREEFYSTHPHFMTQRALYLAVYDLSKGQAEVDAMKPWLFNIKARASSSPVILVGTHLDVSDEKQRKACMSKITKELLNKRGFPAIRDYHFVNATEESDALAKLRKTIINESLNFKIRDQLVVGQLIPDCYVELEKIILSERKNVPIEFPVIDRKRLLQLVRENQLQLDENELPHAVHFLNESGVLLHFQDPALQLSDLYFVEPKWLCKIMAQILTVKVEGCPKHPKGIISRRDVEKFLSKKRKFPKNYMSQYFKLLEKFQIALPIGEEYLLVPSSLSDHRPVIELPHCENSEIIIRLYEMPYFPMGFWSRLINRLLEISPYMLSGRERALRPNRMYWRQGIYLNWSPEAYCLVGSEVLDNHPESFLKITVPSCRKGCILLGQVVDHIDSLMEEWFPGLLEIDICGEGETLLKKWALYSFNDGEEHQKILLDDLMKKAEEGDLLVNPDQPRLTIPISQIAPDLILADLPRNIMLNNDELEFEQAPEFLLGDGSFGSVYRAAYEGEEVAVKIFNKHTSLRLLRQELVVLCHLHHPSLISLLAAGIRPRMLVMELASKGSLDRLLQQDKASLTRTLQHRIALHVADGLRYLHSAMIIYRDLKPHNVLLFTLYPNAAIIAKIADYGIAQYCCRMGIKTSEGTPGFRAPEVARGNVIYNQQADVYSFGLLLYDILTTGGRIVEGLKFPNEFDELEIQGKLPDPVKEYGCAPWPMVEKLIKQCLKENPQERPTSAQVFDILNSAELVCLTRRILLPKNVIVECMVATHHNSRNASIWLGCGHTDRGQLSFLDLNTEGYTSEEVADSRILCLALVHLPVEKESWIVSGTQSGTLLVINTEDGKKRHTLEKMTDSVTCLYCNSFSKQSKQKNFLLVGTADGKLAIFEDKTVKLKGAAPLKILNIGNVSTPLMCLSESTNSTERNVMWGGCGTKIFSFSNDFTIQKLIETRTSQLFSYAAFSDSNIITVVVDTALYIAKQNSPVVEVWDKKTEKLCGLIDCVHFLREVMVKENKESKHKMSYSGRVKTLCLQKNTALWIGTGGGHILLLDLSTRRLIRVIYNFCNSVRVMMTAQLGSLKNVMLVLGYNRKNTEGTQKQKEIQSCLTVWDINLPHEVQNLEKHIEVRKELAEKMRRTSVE

[4] = biological target: T1, LRRK2[G2019S]; assay: Cell-based NanoBRET target engagement assay in HEK293 cells transfected with LRRK2 (G2019S)-NanoLuc fusion vector; set-up: expressed in transfected cells; host or cells: HEK293 (ATCC); settings: compound treatment 1 h
Method: as §1, §2
Target sequence in this assay (Q5S007 whole entry G2019S): as the sequence (Q5S007 whole entry) above, with G2019S counted along it

Row | Compound | Ki [1] [nM] | Ki [2] [nM] | IC50 [3] [nM] | IC50 [4] [nM]
1 | Cn1nc(-c2n[nH]c3ccc(S(C)(=O)=O)cc23)cc(N2CCOCC2)c1=O [Compound 33, 2-methyl-6-(5-methylsulfonyl-1H-indazol-3-yl)-4-morpholino-pyridazin-3-one] | > 100 | 50 to 100 |  | 
2 | CC(C)Oc1cccc2[nH]nc(-c3cc(N4CCOCC4)c(=O)n(C)n3)c12 [Compound 15, 6-(4-isopropoxy-1H-indazol-3-yl)-2-methyl-4-morpholino-pyridazin-3-one] | > 100 | > 100 |  | 
3 | Cn1nc(-c2n[nH]c3cc4c(cc23)OCCC4)cc(N2CCOCC2)c1=O [Compound 31, 2-methyl-4-morpholino-6-(1,6,7,8-tetrahydropyrano[2,3-f]indazol-3-yl)pyridazin-3-one] | > 100 | 50 to 100 |  | 
4 | O=S1(=O)CCCC1c1ccc2cnn(-c3cnnc(N4CCCC4)c3)c2c1 (stereo not shown) [Compound 34, 2-[1-(6-pyrrolidin-1-ylpyridazin-4-yl)indazol-6-yl]thiolane 1,1-dioxide] | > 100 | > 100 |  | 
5 | Cn1nc(-c2n[nH]c3ccc(OC(F)(F)F)cc23)cc(N2CCOCC2)c1=O [Compound 22, 2-methyl-4-morpholino-6-[5-(trifluoromethoxy)-1H-indazol-3-yl]pyridazin-3-one] | > 100 | > 100 |  | 
6 | N#CC1(c2ccc3cnn(-c4cnnc(N5CCCC5)c4)c3c2)CC1 [Compound 36, 1-[1-(6-pyrrolidin-1-ylpyridazin-4-yl)indazol-6-yl]cyclopropanecarbonitrile] | > 100 | 50 to 100 |  | 
7 | Cn1nc(-n2ncc3ccc(C(C)(C)C#N)cc32)cc(N2CCOCC2)c1=O [Compound 43, 2-methyl-2-[1-(1-methyl-5-morpholino-6-oxo-pyridazin-3-yl)indazol-6-yl]propanenitrile] | > 100 | 50 to 100 |  | 
8 | Cn1nc(-c2n[nH]c3ccc4c(c23)CCCO4)cc(N2CCOCC2)c1=O [Compound 29, 2-methyl-4-morpholino-6-(3,7,8,9-tetrahydropyrano[3,2-e]indazol-1-yl)pyridazin-3-one] | > 100 | 50 to 100 |  | 
9 | Cc1c(OC(C)C)ccc2[nH]nc(-c3cc(N4CCOCC4)c(=O)n(C)n3)c12 [Compound 24, 6-(5-isopropoxy-4-methyl-1H-indazol-3-yl)-2-methyl-4-morpholino-pyridazin-3-one] | > 100 | > 100 |  | 
10 | N#CC1(c2ccc3cnn(-c4cnnc(N5CCCC5)c4)c3c2)CCCCC1 [Compound 37, 1-[1-(6-pyrrolidin-1-ylpyridazin-4-yl)indazol-6-yl]cyclohexanecarbonitrile] | > 100 | > 100 |  | 

Further lines, results first:

Row | Ki [1] [nM] | Ki [2] [nM] | IC50 [3] [nM] | IC50 [4] [nM] | Compound
11 | 5 to 10 | ≤ 10 | ≥ 100 | 50 to 100 | CC(C)Oc1ccc2[nH]nc(-c3cc(N4CCOCC4)c(=O)n(C(C)C)n3)c2c1 [Compound 21, 6-(5-isopropoxy-1H-indazol-3-yl)-2-isopropyl-4-morpholino-pyridazin-3-one]
12 | ≤ 5 | ≤ 10 | ≥ 100 | 50 to 100 | CCn1nc(-c2n[nH]c3ccc(OC(C)C)cc23)cc(N2CCOCC2)c1=O [Compound 23, 2-ethyl-6-(5-isopropoxy-1H-indazol-3-yl)-4-morpholino-pyridazin-3-one]
13 | 10 to 50 | ≤ 10 |  |  | Cc1nnc(-c2n[nH]c3ccc(OC(C)C)cc23)cc1N1CCOCC1 [Compound 10, 4-[6-(5-isopropoxy-1H-indazol-3-yl)-3-methyl-pyridazin-4-yl]morpholine]
14 | 10 to 50 | ≤ 10 |  |  | Cn1nc(-c2n[nH]c3ccc(-n4cccc4C#N)cc23)cc(N2CCOCC2)c1=O [Compound 45, 1-[3-(1-methyl-5-morpholino-6-oxo-pyridazin-3-yl)-1H-indazol-5-yl]pyrrole-2-carbonitrile]
15 | 5 to 10 | ≤ 10 |  |  | CC(C)Oc1ccc2[nH]nc(-c3cnnc(N4CCOCC4)n3)c2c1 [Compound 13, 4-[5-(5-isopropoxy-1H-indazol-3-yl)-1,2,4-triazin-3-yl]morpholine]
16 | ≤ 5 | 10 to 20 |  |  | CC(C)Oc1ccc2[nH]nc(-c3cnnc(N4CCCC4)c3)c2c1 [Compound 5, 5-isopropoxy-3-(6-pyrrolidin-1-ylpyridazin-4-yl)-1H-indazole]
17 | 50 to 100 | > 100 |  |  | Cn1nc(-c2n[nH]c3ccc(OC(F)F)cc23)cc(N2CCOCC2)c1=O [Compound 32, 6-[5-(difluoromethoxy)-1H-indazol-3-yl]-2-methyl-4-morpholino-pyridazin-3-one]
18 | 50 to 100 | ≤ 10 |  |  | Cn1nc(-n2ncc3ccc(C4(C#N)CC4)cc32)cc(N2CCOCC2)c1=O [Compound 41, 1-[1-(1-methyl-5-morpholino-6-oxo-pyridazin-3-yl)indazol-6-yl]cyclopropanecarbonitrile]
19 | 5 to 10 | 10 to 20 |  |  | CC(C)Oc1ccc2[nH]nc(-c3cnnc(N4CC(O)C4)c3)c2c1 [Compound 1, 1-[5-(5-isopropoxy-1H-indazol-3-yl)pyridazin-3-yl]azetidin-3-ol]
20 | 50 to 100 | 20 to 50 |  |  | N#CC1(c2ccc3cnn(-c4cnnc(N5CCCC5)c4)c3c2)CCCC1 [Compound 39, 1-[1-(6-pyrrolidin-1-ylpyridazin-4-yl)indazol-6-yl]cyclopentanecarbonitrile]
21 | 50 to 100 | 20 to 50 |  |  | CC(C)(C#N)c1ccc2cnn(-c3cnnc(N4CCCC4)c3)c2c1 [Compound 35, 2-methyl-2-[1-(6-pyrrolidin-1-ylpyridazin-4-yl)indazol-6-yl]propanenitrile]
